# Patent US20240115705A1, “Regulation of Butyrophilin subfamily 3 member A1 (BTN3A1, CD277)” (The J. Gladstone Institutes, a testamentary trust …, priority 2021, published 2024)
# Read-outs that look alike come from different tables or passages of the source.
# System: Daudi-Cas9 cells
# Assay: Cancer-T cell co-culture genome-wide CRISPR knockout screen (Vγ9Vδ2 T cell killing)
# Type: cell-based, human
# [1] = MAGeCK sgRNA test, co-culture screen
# [2] = log-fold change of sgRNA, surviving cells after co-culture vs baseline, MAGeCK
# [3] = sgRNA abundance in surviving Daudi-Cas9 KO cells after 24 hours Vγ9Vδ2 T cell co-culture with zoledronate, MAGeCK
# [4] = sgRNA enriched (TRUE) or depleted (FALSE) after T cell co-culture
Substance,score [1],LFC [2],treat mean [3],high_in_treatment [4],LFC,high_in_treatment,score,treat mean
"RPP38_CGATTCTCTCACTGAGCCG: library sgRNA targeting RPP38 (as printed in the source, key not given here)",7.8058,−3.1996,558.49,FALSE,–,–,–,–
"SUGT1_TTTGACTGATGAGTCCACT: library sgRNA targeting SUGT1 (listed as DNA, chemistry not fully specified)",7.7611,1.5136,3294.2,TRUE,–,–,–,–
"OIP5_TATTCTACCCATGCTGCCC: library sgRNA targeting OIP5 (as printed in the source, key not given here)",6.4136,−5.8943,45.034,FALSE,–,–,–,–
"XPNPEP1_GGACTTGTAGGGATGCACC: library sgRNA targeting XPNPEP1 (as printed in the source, key not given here)",6.7154,1.4173,2841.3,TRUE,–,–,–,–
"OIP5_CGACTCGGTGCACCTCGCC: library sgRNA targeting OIP5 (as printed in the source, key not given here)",6.3045,−7.255,16.543,FALSE,–,–,–,–
"UGGT2_TTCGCAATCTTGGGATCAA: library sgRNA targeting UGGT2 (listed as DNA, chemistry not fully specified)",8.3503,1.6772,3035.8,TRUE,–,–,–,–
"RPP25L_TGGCTCTGGGTCGGTTGGA: library sgRNA targeting RPP25L (as printed in the source, key not given here)",6.0209,−7.7316,9.1906,FALSE,–,–,–,–
"SPIB_CCTCGTGGCTGGCCCCGAG: library sgRNA targeting SPIB (as printed in the source, key not given here)",7.9175,1.2165,5523.4,TRUE,–,–,–,–
"ACAT2_CAGTCCAGTCAATAGGGAT: library sgRNA targeting ACAT2 (listed as DNA, chemistry not fully specified)",12.759,2.0827,4335.4,TRUE,–,–,–,–
"MRPS26_CCCCCGGCCGCACACCTGA: library sgRNA targeting MRPS26 (as printed in the source, key not given here)",7.3571,−3.3597,431.96,FALSE,–,–,–,–
"BTN3A1_CAGGGCGGCGATCCACCTC: library sgRNA targeting BTN3A1 (listed as DNA, chemistry not fully specified)",11.298,2.049,3523.7,TRUE,–,–,–,–
"SPI1_ATACTCGTGCGTTTGGCGT: library sgRNA targeting SPI1 (as printed in the source, key not given here)",8.1546,1.1261,6915.7,TRUE,–,–,–,–
"IRF1_CTAGGCCGATACAAAGCAG: library sgRNA targeting IRF1 (as printed in the source, key not given here)",9.7786,1.6906,4103.9,TRUE,–,–,–,–
"BTN2A1_AGCCCCTCATTTCAATGAG: library sgRNA targeting BTN2A1 (listed as DNA, chemistry not fully specified)",7.0382,1.7442,1965.3,TRUE,–,–,–,–
"IRF1_CACCTCCTCGATATCTGGC: library sgRNA targeting IRF1 (as printed in the source, key not given here)",8.8869,1.2122,7029.4,TRUE,–,–,–,–
"IFFO1_GGCCTGGGTCGTCGCGACC: library sgRNA targeting IFFO1 (as printed in the source, key not given here)",5.9717,4.5353,68.011,TRUE,–,–,–,–
"EEFSEC_TCATCCGGACCATCATCGG: library sgRNA targeting EEFSEC (listed as DNA, chemistry not fully specified)",6.18,−4.9819,83.299,FALSE,–,–,–,–
"IRF9_TGTATCAGTTGCTGCCACC: library sgRNA targeting IRF9 (as printed in the source, key not given here)",7.0068,1.2192,4293.9,TRUE,–,–,–,–

Substance,score [1],LFC [2],treat mean [3],high_in_treatment [4],LFC,high_in_treatment,score,treat mean
"BTN2A2_TGTGCACTGGTCTCAGGTA: library sgRNA targeting BTN2A2 (listed as DNA, chemistry not fully specified)",13.201,2.0744,4689.1,TRUE,–,–,–,–
"BTN3A1_TGCTGCTTCTTGGGGGAGC: library sgRNA targeting BTN3A1 (listed as DNA, chemistry not fully specified)",17.532,2.0651,8413.1,TRUE,–,–,–,–
"BTN3A1_AGAGTTGAGAGAAATGGCA: library sgRNA targeting BTN3A1 (listed as DNA, chemistry not fully specified)",18.173,2.7951,4251.1,TRUE,–,–,–,–
"ARL14EPL_TTAATAGCAACAAATAGAG: library sgRNA targeting ARL14EPL (listed as DNA, chemistry not fully specified)",7.215,3.9422,227.01,TRUE,–,–,–,–
"MRPL55_CGACTCTACCCCGTGCTGC: library sgRNA targeting MRPL55 (as printed in the source, key not given here)",6.305,−4.7404,104.65,FALSE,–,–,–,–
"SPIB_GAGGTCTCGGACAGCGAGT: library sgRNA targeting SPIB (as printed in the source, key not given here)",7.1579,1.2994,3907.1,TRUE,–,–,–,–
"IRF1_TGCCTGTTTGTTCCGGAGC: library sgRNA targeting IRF1 (as printed in the source, key not given here)",11.386,1.4325,8072.2,TRUE,–,–,–,–
"BTN3A1_AGGGAACTTCTGATGGTAC: library sgRNA targeting BTN3A1 (listed as DNA, chemistry not fully specified)",8.7326,1.7308,3095,TRUE,–,–,–,–
"DNLZ_CAGCTCGTCTACACCTGCA: library sgRNA targeting DNLZ (as printed in the source, key not given here)",6.2683,−8.2244,6.7801,FALSE,–,–,–,–
"BCCIP_AATCTCTTACTGAAGCTGC: library sgRNA targeting BCCIP (listed as DNA, chemistry not fully specified)",6.3357,−5.3797,64.834,FALSE,–,–,–,–
"EEFSEC_TCACGCTGGTCGACTGCCC: library sgRNA targeting EEFSEC (listed as DNA, chemistry not fully specified)",6.5622,−8.5255,6.8247,FALSE,–,–,–,–
"SPI1_CACGTCCTCGATACCCCCA: library sgRNA targeting SPI1 (as printed in the source, key not given here)",9.6891,1.4776,5441.8,TRUE,–,–,–,–
"DKK1_CGCTAGTCCCACCCGCGGA: library sgRNA targeting DKK1 (as printed in the source, key not given here)",6.0866,1.0785,4197.4,TRUE,–,–,–,–
"BTN2A1_TCTTGGAAGTAACAGCGGT: library sgRNA targeting BTN2A1 (listed as DNA, chemistry not fully specified)",18.758,2.4492,6366.6,TRUE,–,–,–,–
"IRF1_AGCCGAGATGCTAAGAGCA: library sgRNA targeting IRF1 (as printed in the source, key not given here)",8.1693,1.6173,3151.9,TRUE,–,–,–,–
"SH3GL1_ACTTCTGTCACCGCCTTGC: library sgRNA targeting SH3GL1 (listed as DNA, chemistry not fully specified)",6.045,−7.484,11.374,FALSE,–,–,–,–
SARS2_GCACGGTGCTCACCACGTC: library sgRNA targeting SARS2 (chemistry not given here),–,–,–,–,−3.8724,FALSE,6.2052,200.19
"PHB_GACCGATTCCGTGGAGTGC: library sgRNA targeting PHB (as printed in the source, key not given here)",6.0021,−3.7742,202.44,FALSE,–,–,–,–
